“Also recorded” adds a separate entry of the source.
What was measured:
Assay type in all cases: biochemical
[1] = target: T1, h15-LOX-1 (Homo sapiens, UniProt P16050); assay: Substrate activity and kinetic parameters with h15-LOX-1
T1 construct: His tag; made in house
T1 sequence (P16050 1-662): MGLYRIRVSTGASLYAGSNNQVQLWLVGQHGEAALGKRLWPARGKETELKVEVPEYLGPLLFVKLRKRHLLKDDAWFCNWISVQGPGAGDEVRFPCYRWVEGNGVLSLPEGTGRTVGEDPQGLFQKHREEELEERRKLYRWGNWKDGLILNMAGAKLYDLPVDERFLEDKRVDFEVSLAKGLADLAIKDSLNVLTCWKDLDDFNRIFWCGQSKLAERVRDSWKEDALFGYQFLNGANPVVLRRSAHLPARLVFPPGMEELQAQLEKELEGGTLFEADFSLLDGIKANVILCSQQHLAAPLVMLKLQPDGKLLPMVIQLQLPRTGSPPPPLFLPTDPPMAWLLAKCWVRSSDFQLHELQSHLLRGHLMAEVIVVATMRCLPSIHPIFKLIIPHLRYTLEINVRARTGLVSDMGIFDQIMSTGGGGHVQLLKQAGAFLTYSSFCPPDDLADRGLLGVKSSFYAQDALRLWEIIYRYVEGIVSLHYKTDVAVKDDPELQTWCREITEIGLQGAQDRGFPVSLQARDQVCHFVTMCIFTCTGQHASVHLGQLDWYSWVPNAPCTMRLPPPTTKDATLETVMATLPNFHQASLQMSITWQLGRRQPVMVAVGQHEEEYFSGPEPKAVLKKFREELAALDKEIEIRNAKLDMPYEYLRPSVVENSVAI

[2] = target: T1, h15-LOX-1; assay: as above; details: acyl-CoAs tested at 70 µM, change in absorbance at 234 nm
Protocol: Considering that some of these acyl-CoAs could potentially be substrates for LOX isozymes, each acyl-CoA was tested at 70 µM against each LOX isozyme to establish the possibility of catalysis.
The same buffer as used to determine IC50 values for h5-LOX was used for product determination. Turnover was monitored by absorbance at 234 nm.

[3] = target: T2, h15-LOX-2 (Homo sapiens, UniProt O15296); assay: Kinetic investigation of oleoyl-CoA (18:1) inhibition of h15-LOX-2
T2 construct: His tag; made in house
T2 sequence (O15296 1-676): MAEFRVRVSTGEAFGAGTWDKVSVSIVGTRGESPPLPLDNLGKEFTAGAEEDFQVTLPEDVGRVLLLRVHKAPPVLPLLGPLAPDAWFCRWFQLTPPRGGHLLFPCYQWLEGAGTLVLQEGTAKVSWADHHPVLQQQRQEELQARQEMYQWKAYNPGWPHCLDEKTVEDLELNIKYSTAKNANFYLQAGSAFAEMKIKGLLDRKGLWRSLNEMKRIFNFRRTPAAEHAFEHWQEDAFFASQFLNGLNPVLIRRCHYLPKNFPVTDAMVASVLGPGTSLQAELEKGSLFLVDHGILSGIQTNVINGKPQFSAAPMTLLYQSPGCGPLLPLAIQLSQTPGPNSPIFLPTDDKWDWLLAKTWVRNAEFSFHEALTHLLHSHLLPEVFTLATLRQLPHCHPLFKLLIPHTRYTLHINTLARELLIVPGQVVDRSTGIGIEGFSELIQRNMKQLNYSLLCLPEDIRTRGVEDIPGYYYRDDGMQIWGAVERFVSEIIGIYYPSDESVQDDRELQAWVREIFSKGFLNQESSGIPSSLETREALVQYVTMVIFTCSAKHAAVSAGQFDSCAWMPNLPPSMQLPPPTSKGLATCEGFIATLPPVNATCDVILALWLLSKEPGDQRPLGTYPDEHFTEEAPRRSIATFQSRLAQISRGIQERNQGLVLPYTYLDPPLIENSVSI
Protocol: (1) 1/v=(αKM/kcat)[([I]+Ki)/(β[I]+αKi)]×1/[S]+1/kcat×[([I]+αKi)/(β[I]+αKi)] (2) KM(app)=αKM[([I]+Ki)/[…]] (3) kcat/KM=(kcat/αKM)[(β[I]+αKi)/([I]+Ki)] (4) kcat=kcat[(β[I]+αKi)/([I]+αKi)]
These two parameters were then utilized to fit Equation (3) relative to kcat/KM (app), which yielded a β value of 0.26 +/− 0.23 (Figure 2). Given the high error for the β value, β was also determined by applying the values for α and Ki from the KM (app) plot to Equation 4 and fitted to the kcat data (Figure 3). This fit yielded a β value of 0.30 +/− 0.07, consistent with the Equation 3 fit but with a lower error value. These kinetic values indicate hyperbolic allostery, α > 1 (K-type inhibition) and β < 1 (V-type inhibition), with the kinetic change being equally observed in both KM (α = 3.2 +/− 1) and kcat (β = 0.30 +/− 0.07). […] It should be noted that the Ki values from our hyperbolic fits (82 +/− 70 nM) were dramatically lower than those determined from IC50 measurements (620 ± 60 nM), which is consistent with the more accurate nature of the hyperbolic fits relative to the IC50 fits, due to the oversimplification of the IC50 analysis.
The reactions were carried out in 25 mM HEPES buffer (pH 7.5), 0.01% Triton X-100. […] Reactions were performed at 22 °C in a 1 cm^2 quartz cuvette containing 2 mL of the according buffer for no longer than 2 min to avoid any cleavage of the acyl-coenzyme A. Using a Cary-UV Vis spectrophotometer, the fastest rates over 15 s intervals were recorded. Kinetic values were obtained by plotting the rate against the substrate concentration, followed by a hyperbolic saturation curve fit. The saturation curve fits were performed in triplicate and on separate days to ensure there was no bias. The equations used to find kinetic values were from previous studies.

[4] = h15-LOX-1, compared with published values [31]

`CCCCC/C=C\C/C=C\CCCCCCCC(=O)SCCNC(=O)CCNC(=O)[C@H](O)C(C)(C)COP(=O)(O)OP(=O)(O)OC[C@H]1O[C@@H](n2cnc3c(N)ncnc32)[C@H](O)[C@@H]1OP(=O)(O)O` [Linoleoyl-CoA (18:2), linoleoyl-CoA] was tested, and the Km ([1]; as substrate of h15-LOX-1, 22 °C) was 12 µM, the kcat ([1]; as substrate of h15-LOX-1, 22 °C, listed as linoleoyl-CoA) was 7.5 (0.4) s^−1 and the kcat ([1]; as substrate of h15-LOX-1, 22 °C, listed as linoleoyl-CoA (18:2)) was 7.5 ± 0.4 s⁻¹. The “kcat fold less than free linoleic acid” value [1, 4] was 1.3 fold, the “kcat/KM fold less than free linoleic acid” value [1, 4] was 7 fold and the “Substrate activity with h15-LOX-1” value [2] was “(Substrate)”. The “Substrate activity with h15-LOX-1” value ([2]; listed as linoleoyl-CoA (18:2)) was “substrates; also recorded: rapid substrate”.

`CCCCCCCC/C=C\CCCCCCCC(=O)SCCNC(=O)CCNC(=O)[C@H](O)C(C)(C)COP(=O)(O)OP(=O)(O)OC[C@H]1O[C@@H](n2cnc3c(N)ncnc32)[C@H](O)[C@@H]1OP(=O)(O)O` [Oleoyl-CoA (18:1), oleoyl-coenzyme A (18:1)] was tested, and the “Type of inhibition of h15-LOX-2” value [3] was “allosteric inhibition (i.e., partial inhibition)”, the “β (the change in kcat), Equation 4 fit” value ([3]; fit of kcat data) was 0.30 +/− 0.07 and the “β (the change in kcat), Equation 3 fit” value ([3]; fit of kcat/KM (app)) was 0.26 +/− 0.23. It also gave a Ki ([3]; h15-LOX-2, substrate AA, pH 7.5, 22 °C, read-out: Ki (allosteric, hyperbolic fit of KM (app), Equation 2)) of 0.082 µM.

— article PMC10341549, “Inhibitory Investigations of Acyl-CoA Derivatives against Human Lipoxygenase Isozymes” (International Journal of Molecular Sciences, 2023)
